Assay results: publication PMC9656482, “In Vitro and In Vivo Biological Activity of Ruthenium 1,10-Phenanthroline-5,6-dione Arene Complexes” (International Journal of Molecular Sciences, 2022)

Experiments:
[1] = system: A2780 cells; assay: Senescence assay (beta-galactosidase fluorescence); type: cell-based, human; conditions: A2780, 48 h, IC50 of JHOR11, relative to DMSO
Description: The senescence of A2780 cells after 48 h incubation with IC50 of JHOR11 was also analyzed to add more insights into the mechanism of action of the complex. Premature cellular senescence is an irreversible state of cell cycle arrest that occurs in response to intrinsic and extrinsic insults to the cell that induce DNA damage, oxidative stress, or nutrient depletion. The percentage of senescent cells was measured using the senescence assay kit (Abcam) that allows the quantification of the senescence-associated expression of beta-galactosidase activity by flow cytometry. […] [36].
The cell senescence analysis was performed using the Senescence assay kit (beta galactosidade fluorescence, Abcam, Cambridge, UK) according to the manufacturer’s instruction with few modifications. Briefly, A2780 cells were seeded in 24 well-plates to a final cell density of 4 × 10^5 cells/well. After 24 h incubation, to assure cell adhesion to the wells, the medium was replaced by fresh media supplemented with 0.1% (v/v) DMSO, for vector control, 3.5 µM cisplatin, 0.1 µM Doxorubicin, or IC50 JHOR11. […] Pelleted cells were washed with wash buffer, resuspended in the same buffer and the percentage of fluorescent cells in each sample was immediately measured in an Attune focusing flow cytometer and respective software (Thermo Fisher Scientific).

[2] = system: BAX and BCL-2 protein expression in A2780 cells; conditions: A2780, 48 h, IC50 of JHOR11, normalized to DMSO control = 1
Description: The ratio between BAX and BCL-2 protein expression indicates the level of susceptibility of the cell to the intrinsic apoptotic pathway [26, 27, 28]. The BAX and BCL-2 protein expression was quantified by Western blot analysis to calculate the apoptotic index of cells after 48 h incubation with IC50 of JHOR11, using the quantification of β-actin as the internal control and 0.1% (v/v) DMSO as the vehicle control (Figure 4).
The apoptotic index was determined by quantification of BAX and BCL-2 protein expression by Western blot, as previously described [18]. Briefly, 4 × 10^6 cells were seeded on T-flasks with 25 cm^2 for 24 h and then the medium was replaced by a fresh medium supplemented with IC50 JHOR11, 0.1% (v/v) DMSO (vector control) or 0.1 µM doxorubicin (positive control). After 48 h incubation, cells were detached with a cell scraper and BAX, BCL-2 and β-actin proteins were quantified in a PVDF membrane [18]. The apoptotic ratio BAX/BCL-2 was calculated after normalization of the BAX and BCL-2 band intensity with respective β-actin band intensity and to the values of the DMSO-treated sample, measured using ImageJ2 software [41].

[3] = Stability in DMSO-d6-D2O solution by 1H NMR; type: physicochemical; conditions: DMSO-d6-D2O 3:7 (v/v), 110 mM chloride, 48 h
Description: To evaluate the stability of complexes in a cell culture medium, powdered complexes were first solubilized in DMSO and then immediately in DMEM, in order to guarantee that no more than 0.1% (v/v) DMSO was present in the medium. […] In addition, the stability of the complexes in solution was investigated by ^1H NMR spectroscopy. The ruthenium complexes were dissolved in DMSO-d6-D2O, in a 3:7 ratio (v/v) with a 110 mM chloride concentration, and the ^1H NMR spectra was recorded immediately and after 48 h. […] This observation is in agreement with the M–Cl aquation processes described for several metallic compounds, such as cisplatin [23]. After 48 h, the ^1H NMR spectrum of JHOR10 was unchanged.
The stability of complexes was evaluated in DMEM (Dulbecco’s modified Eagle’s medium). Powdered complexes JHOR10 and JHOR11 were solubilized in DMSO and then immediately diluted in DMEM without phenol red (Thermo Fisher Scientific, Waltham, MA, USA) to a final concentration of 100 µM, assuring that the final concentration of DMSO was not higher than 0.1% (v/v). The UV-visible spectrum was measured after an incubation at 37 °C for 24 or 48 h (DMEM) in a wavelength range between 260 and 800 nm, using a quartz cuvette with 1 cm path length. A total of 2 mg of each compound was dissolved in DMSOd6-D2O 3:7 (v/v) 110 mM chloride concentration (NaCl), and the ^1H NMR were recorded at 0 h and 48 h on a Bruker Avance III 400 MHz.

[4] = system: normal human dermal fibroblasts; assay: Wound scratch assay; type: cell-based; conditions: 24 h, IC50 of the complex, versus vector control
Description: Cell migration is an essential process for tumor progression, being one of the major events that leads to cancer metastasis. To determine if JHOR11 inhibits cell tumorigenicity, the cell migration ability was analyzed by the wound scratch assay. […] The measure of the wound scratch after 0 h and 24 h allows the determination of the migration ability of the cells.
For wound scratch assay normal human dermal fibroblasts were seeded on […] tissue plates in a cell density of 4 × 10^5 cells/plate and incubated at 37 °C, 5% (v/v), 99% (v/v) relative humidity until reach confluence. A sterile micropipette tip was then used to make a scratch on the confluent monolayer and medium was replaced by fresh medium supplemented with IC50 JHOR11 or 0.1% (v/v) DMSO, as vector control.

[5] = system: A2780 cells; assay: Autophagy assay (flow cytometry); type: cell-based, human; conditions: A2780, 48 h, IC50 of JHOR11
Description: To understand if the cytotoxic effect of the complex is correlated with autophagy, A2780 cells were exposed for 48 h to the IC50 of complex JHOR11. They were then incubated with an autophagic fluorescent dye (Abcam) that becomes highly fluorescent when incorporated into pre-autophagosomes, autophagosomes or autophagolysosomes. Cells were also incubated with DMSO 0.1% (v/v) for vehicle control, and with 1.5 μM rapamycin and 3.5 μM cisplatin as positive controls.
The fluorescence quantification and percentage of autophagic cells was performed on an Attune acoustic focusing flow cytometer and respective software (Thermo Fisher Scientific).

[6] = system: A2780 cells; assay: Cell cycle analysis (PI staining); type: cell-based, human; conditions: A2780 synchronized with thymidine; IC50 of JHOR11 or 0.1 µM doxorubicin; 5-32 h, relative to DMSO
Description: To understand if the complex also presents a cytostatic effect, the cell cycle of A2780 cells was analyzed by DNA staining with PI, after double synchronization with thymidine at the S phase.
The cell cycle analysis was performed by DNA staining with PI according to procedures previously described with few modifications. A2780 cells were seeded in 6-well plates in a cell density of 4 × 10^5 cells/well and the cell cycle was synchronized in the S-phase by double blocking with 2 mM thymidine. […] After 5 h, 9 h, 24 h or 32 h, cells were detached, fixed with 80% (v/v) ethanol, incubated with 50 mg/mL RNase A (NZYtech, Lisbon, Portugal) and stained with […] PI (Thermo Fisher Scientific). The fluorescence of each sample was analyzed in an Attune acoustic focusing cytometer and respective software (Thermo Fisher Scientific).

Cc1ccc(C(C)C)cc1.F[P-](F)(F)(F)(F)F.O=C1C(=O)c2cccnc2-c2ncccc21.[Cl][Ru+] [JHOR11]
percentage of senescent cells [1]: increased percentage of senescent cells
apoptotic index (BAX/BCL-2 ratio) [2]: lower than 1
stability in solution by 1H NMR after 48 h [3]: the majority of the complex remained intact
percentage of regeneration of the wound scratch [4]: no significant differences
percentage of cells with autophagic events [5]: 48.8 ± 7.5%
cell cycle effect [6]: slight increase in cells in G2/M phase
